The values that follow come from patent publication US11028084B2, “Selective inhibitors of gentotoxic steress-induced IKK/NF-κB pathways” (Max-Delbrück-Centrum für Molekulare Medizin in der …, priority 2016, dated 2021).

The subject of assay [1] is TNFα-induced NF-κB activation. In words: p65 S536 phosphorylation after TNFα stimulation, SDS-PAGE/WB, U2OS cells. The class given is cell-based, human. The following applies: 10 μM and 20 μM. The method, then:
(§1) FIG. 4: (A) U2OS cells were pre-treated with increasing concentrations of MW01 in triplicates in a 384 well plate. Then, cells were treated with TNFα, fixed and subjected to IF staining of p65. Spatial measurement of p65 cytosolic and nuclear signals was used for the calculation of p65 translocation rates. (B) U2OS cells were pre-treated with MW01 at concentrations of 10 or 20 μM and stimulated with TNFα. Cell lysates were subjected to SDS-PAGE/WB. (C) HEK293 cells were pre-treated with DMSO or MW01 followed by administration of etoposide or TNFα. Cell lysates were used for EMSA.
(§2) For the activation of the canonical NF-κB pathway cells were treated with recombinant human TNFα (10 ng/ml) or IL-1β (10 ng/ml) for 20-30 min at 37° C.

Assay [2] has as its system TNFα-induced NF-κB activation. In words: NF-κB DNA binding activity (EMSA) after TNFα stimulation, HEK293 cells. Format: cell-based, human. Here is the method:
as §1, §2
Nuclear or whole cell lysates were incubated with a ^32P-labeled NF-κB DNA-[…]
(In general: In EMSA bound probe runs differently from free probe, usually more slowly.)

For assay [3], the system named is genotoxic stress-initiated NF-κB signaling cascade. In words: Time course of IκBα, p65, IKK and TAK1 phosphorylation after γ-IR, WB, U2OS cells. The class given is cell-based, human. The text has this:
FIG. 6: (A) U2OS cells were pre-treated with DMSO or MW01 and irradiated. Stimulation of cell with IL-1β served as a positive control for IκBα and p65 phosphorylation. Cells were lysed at indicated time points and used for WB analyses. (B,C) Similar experimental setup as in (A). (D) Experiment as in (A-C), but with other time points analysed and performed with HepG2 cells. PARP1 and LDH serve as loading controls.

Assay [4] has as its system ATM cytoplasmic translocation. As to the kind of experiment: ATM relocalisation upon DNA DSB, immunofluorescence, U2OS cells. The class given is cell-based, human. Here is the method: FIG. 7: Cytoplasmic accumulation of ATM. (A) Fractionation experiment with separated nuclear extracts (NE) and cytoplasmic extracts (CE). PARP1 and LDH staining served as loading and fractionation controls. Cells were pre-treated with DMSO or MW01 (5 μM) prior to irradiation and cell harvesting at indicated times. NE and CE were subjected to SDS-PAGE/WB procedure. (B) U2OS cells were seeded on cover slips 2 days before treatment. The cells were pre-treated with solvent DMSO alone or with MW01 prior to irradiation, cell fixation and subsequent immunofluorescence staining.
For immunofluorescence staining 0.95×10^5 cells were seeded in 6 well plates onto autoclaved cover slips. Cellular confluency dictated to beginning of the experiment (2-3 days from seeding). After conduction of experiments cells were washed with PBS and fixed with 4% PFA/double-distilled H2O (ddH2O) for 10 min at RT. Following two additional washing steps cells were incubated with a solution containing 0.12% glycine/0.2% saponin in PBS for 10 min and then blocked with a solution containing 10% FCS/0.2% saponin in PBS for 1 h. Primary antibody incubation was performed overnight at 4° C. (1:500 diluted in 0.2% saponin in PBS). The next day, cover slips were washed five times with a solution containing 0.2% saponin in PBS. […]

The subject of assay [5] is ATM substrate histone H2AX. In words: Phospho-H2AX immunofluorescence after etoposide, U2OS cells. The class given is cell-based, human. The following applies: after etoposide treatment. Here is the method: FIG. 2: U2OS cells were pre-treated and incubated with DMSO or MW01. DNA damage was induced by administration of etoposide. After 2 h cells were fixed, nuclei were stained with DAPI. p65 and phospho-H2AX, which is indicative for DNA DSB, were stained by immunofluorescence. Images were taken at a confocal Zeiss 710 LSM with a 40× oil objective.

Assay [6] deals with nuclear IKKγ-PIASy-PARP1-ATM signalosome (Homo sapiens, UniProt P09874+Q13315+Q8N2W9+Q9Y6K9). In words: Nuclear PARP1-signalosome formation, co-immunoprecipitation, HepG2 cells. Format: cell-based. Also on record: endogenous in cells. Here is the method:
FIG. 8: (A) HepG2 cells were pre-treated with DMSO or MW01 and irradiated. Nuclear cell extracts (NE) were used for PIASy immunoprecipitation (IP). Western blot membranes were incubated with indicated antibodies. (B) Experiment as shown in (A), but with IKKγ IP. (C) Experiment as shown in (B), but done in HEK293 cells. (D) Experiment done as shown in […], but repeated in MEF cells.
Following cell lysis the protein concentration of samples was determined. For input controls, 40 μg lysate were mixed with 6×SDS-buffer and denatured by heating to 95° C. for 4 min. Approximately 1500 μg protein lysate was used for pulldown and samples volumes were equalled with lysis buffer. Lysates were precleared with 30 μl sepharose A or sepharose G beads (depending on the antibody type used for pulldown) for 30 min, and centrifuged for 5 min at 1,500×g. The supernatant was transferred to a new reaction tube. Primary antibody (2-2.5 μg) was added to the cleared lysate for immunoprecipitation overnight while rotating at 4° C. The next day 30 μl sepharose beads per sample were used for immobilisation of antibodies. Following 4 washes with IP wash buffer precipitated proteins were eluted by mixing with 3×SDS-buffer and heating to 95° C. for 4 min.

nuclear IKKγ-PIASy-PARP1-ATM signalosome, sequence (Q9Y6K9 whole entry): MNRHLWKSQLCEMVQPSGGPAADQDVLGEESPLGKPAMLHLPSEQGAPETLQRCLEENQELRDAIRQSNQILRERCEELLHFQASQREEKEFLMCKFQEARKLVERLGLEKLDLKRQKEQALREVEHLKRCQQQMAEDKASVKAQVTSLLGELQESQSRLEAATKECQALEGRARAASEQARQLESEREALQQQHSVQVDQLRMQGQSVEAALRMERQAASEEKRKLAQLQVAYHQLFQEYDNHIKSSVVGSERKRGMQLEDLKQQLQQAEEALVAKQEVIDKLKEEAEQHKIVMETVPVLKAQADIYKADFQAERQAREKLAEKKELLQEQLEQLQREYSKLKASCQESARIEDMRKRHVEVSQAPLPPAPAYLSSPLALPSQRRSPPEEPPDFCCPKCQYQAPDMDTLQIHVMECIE
nuclear IKKγ-PIASy-PARP1-ATM signalosome, sequence (Q8N2W9 2-510 limits assumed): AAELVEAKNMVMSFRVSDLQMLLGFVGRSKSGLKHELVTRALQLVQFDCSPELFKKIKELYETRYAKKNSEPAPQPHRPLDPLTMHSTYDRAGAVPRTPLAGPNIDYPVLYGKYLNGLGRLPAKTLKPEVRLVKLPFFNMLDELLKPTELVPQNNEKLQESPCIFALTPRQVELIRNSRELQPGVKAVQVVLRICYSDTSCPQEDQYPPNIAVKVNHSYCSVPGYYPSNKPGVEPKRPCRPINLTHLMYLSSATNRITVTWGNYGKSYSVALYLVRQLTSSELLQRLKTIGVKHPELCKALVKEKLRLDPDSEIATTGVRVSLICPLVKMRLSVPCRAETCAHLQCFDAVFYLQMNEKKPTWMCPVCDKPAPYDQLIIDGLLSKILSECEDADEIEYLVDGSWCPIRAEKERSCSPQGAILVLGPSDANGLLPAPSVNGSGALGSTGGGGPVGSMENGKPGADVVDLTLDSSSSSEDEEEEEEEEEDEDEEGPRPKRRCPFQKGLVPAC
nuclear IKKγ-PIASy-PARP1-ATM signalosome, sequence (P09874 2-1014 limits assumed): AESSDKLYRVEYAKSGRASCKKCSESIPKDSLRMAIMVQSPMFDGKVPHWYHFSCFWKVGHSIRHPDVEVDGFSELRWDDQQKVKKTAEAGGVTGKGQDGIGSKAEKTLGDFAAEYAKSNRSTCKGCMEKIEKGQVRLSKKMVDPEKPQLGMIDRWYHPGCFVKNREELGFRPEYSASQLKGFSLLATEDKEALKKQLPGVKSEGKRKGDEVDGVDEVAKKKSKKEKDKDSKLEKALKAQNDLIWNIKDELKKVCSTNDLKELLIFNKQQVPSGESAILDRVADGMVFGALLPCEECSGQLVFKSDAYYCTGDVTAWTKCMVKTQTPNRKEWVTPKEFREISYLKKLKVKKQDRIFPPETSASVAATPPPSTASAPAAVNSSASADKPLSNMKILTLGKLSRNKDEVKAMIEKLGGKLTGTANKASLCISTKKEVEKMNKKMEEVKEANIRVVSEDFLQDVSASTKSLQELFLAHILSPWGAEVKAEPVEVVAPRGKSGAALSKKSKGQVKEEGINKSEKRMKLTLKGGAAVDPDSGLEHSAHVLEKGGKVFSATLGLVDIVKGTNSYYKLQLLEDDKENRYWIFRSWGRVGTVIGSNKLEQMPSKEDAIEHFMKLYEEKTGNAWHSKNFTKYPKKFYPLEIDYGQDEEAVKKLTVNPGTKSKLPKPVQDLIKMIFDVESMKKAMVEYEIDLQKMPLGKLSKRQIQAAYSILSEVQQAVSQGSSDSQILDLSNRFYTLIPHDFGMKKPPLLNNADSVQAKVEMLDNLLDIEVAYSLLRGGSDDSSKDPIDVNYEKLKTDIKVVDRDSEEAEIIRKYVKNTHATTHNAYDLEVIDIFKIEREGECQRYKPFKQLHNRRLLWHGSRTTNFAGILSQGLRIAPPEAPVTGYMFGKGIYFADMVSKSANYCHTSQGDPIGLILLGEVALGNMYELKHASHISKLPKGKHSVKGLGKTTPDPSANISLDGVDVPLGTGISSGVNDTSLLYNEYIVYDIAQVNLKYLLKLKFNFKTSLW
nuclear IKKγ-PIASy-PARP1-ATM signalosome, sequence (Q13315 2-3056 limits assumed): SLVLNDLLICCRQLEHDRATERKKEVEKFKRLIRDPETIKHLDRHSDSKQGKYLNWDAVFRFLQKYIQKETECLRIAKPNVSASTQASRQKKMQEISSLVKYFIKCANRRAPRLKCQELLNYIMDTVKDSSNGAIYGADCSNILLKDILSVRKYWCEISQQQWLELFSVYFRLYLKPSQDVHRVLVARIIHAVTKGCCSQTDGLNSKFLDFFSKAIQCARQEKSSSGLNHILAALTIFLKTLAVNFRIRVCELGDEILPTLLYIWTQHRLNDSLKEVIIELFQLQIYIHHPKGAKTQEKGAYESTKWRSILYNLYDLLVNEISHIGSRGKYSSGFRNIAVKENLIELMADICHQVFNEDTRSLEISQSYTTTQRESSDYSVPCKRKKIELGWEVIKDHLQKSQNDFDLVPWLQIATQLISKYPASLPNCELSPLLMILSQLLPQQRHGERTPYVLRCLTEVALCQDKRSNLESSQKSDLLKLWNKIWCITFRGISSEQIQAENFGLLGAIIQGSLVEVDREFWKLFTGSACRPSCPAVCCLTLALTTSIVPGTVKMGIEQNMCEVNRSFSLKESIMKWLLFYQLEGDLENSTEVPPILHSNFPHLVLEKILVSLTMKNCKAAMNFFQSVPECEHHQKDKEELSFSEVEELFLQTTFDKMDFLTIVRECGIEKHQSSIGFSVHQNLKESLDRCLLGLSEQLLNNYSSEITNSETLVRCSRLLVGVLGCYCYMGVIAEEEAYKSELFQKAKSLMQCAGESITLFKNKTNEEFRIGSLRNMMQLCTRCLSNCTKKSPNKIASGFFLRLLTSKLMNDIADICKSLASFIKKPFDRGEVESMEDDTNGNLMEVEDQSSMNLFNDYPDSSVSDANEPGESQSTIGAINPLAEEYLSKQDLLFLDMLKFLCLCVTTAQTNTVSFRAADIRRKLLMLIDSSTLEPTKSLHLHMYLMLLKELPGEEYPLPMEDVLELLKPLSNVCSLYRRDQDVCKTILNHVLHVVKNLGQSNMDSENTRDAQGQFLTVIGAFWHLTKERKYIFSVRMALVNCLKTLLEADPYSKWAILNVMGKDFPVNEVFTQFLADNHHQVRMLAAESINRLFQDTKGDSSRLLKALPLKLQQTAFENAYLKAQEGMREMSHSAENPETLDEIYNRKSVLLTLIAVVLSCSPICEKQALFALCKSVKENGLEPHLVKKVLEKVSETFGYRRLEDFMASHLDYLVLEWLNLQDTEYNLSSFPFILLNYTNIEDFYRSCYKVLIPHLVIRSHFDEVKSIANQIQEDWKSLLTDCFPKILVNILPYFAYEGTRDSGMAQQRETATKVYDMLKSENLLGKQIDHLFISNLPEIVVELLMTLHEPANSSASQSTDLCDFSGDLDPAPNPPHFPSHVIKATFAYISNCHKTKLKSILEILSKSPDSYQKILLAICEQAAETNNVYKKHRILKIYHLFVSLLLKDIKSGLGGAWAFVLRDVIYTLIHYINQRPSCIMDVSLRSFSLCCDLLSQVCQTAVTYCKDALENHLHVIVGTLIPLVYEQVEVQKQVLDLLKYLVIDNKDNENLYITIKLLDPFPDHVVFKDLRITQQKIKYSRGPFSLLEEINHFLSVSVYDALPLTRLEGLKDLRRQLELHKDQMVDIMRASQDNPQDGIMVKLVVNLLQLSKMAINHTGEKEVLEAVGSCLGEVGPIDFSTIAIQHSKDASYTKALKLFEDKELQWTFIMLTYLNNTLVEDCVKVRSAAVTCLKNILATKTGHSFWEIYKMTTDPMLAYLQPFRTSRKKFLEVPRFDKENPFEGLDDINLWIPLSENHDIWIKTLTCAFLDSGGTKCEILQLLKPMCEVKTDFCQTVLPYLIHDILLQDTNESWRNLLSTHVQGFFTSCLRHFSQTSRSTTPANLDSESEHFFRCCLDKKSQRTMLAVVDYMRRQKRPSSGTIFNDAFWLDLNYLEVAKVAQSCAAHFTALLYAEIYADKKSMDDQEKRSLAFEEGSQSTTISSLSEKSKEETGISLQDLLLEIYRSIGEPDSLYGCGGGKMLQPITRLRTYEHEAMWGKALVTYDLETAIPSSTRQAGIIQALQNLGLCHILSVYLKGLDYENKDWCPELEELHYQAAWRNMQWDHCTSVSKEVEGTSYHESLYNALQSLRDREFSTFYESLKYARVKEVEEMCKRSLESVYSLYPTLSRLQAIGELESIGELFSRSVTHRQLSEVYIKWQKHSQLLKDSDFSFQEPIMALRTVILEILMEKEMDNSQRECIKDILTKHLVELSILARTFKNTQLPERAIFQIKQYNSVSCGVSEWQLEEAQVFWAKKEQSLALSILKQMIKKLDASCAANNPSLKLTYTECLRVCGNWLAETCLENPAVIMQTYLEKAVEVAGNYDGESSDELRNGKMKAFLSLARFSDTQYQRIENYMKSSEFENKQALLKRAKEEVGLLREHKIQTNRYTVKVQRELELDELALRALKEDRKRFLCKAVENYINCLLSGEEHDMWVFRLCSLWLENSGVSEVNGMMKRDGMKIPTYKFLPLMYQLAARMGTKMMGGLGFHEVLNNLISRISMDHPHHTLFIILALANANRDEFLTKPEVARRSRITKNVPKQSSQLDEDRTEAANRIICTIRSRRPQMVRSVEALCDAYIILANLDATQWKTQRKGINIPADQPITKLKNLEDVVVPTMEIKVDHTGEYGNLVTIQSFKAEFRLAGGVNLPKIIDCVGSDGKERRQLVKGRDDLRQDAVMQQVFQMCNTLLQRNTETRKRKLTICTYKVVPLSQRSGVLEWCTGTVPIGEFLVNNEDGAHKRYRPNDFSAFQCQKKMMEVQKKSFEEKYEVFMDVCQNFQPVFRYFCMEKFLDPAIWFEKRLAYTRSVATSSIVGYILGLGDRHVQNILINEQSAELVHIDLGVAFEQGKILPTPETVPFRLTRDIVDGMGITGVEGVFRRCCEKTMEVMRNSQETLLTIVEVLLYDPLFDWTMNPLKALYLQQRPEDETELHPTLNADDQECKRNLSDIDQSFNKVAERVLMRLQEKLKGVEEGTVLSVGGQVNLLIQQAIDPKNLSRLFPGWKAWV

As to `COc1ccc2c(c1OC)c(=O)n1c3ccc(O)cc3c3ccnc2c31` [MW01, 12-hydroxy-6,7-dimethoxy-8H-benzo[c]indolo[3,2,1-ij][1,5]naphthyridin-8-one], the “p65 S536 phosphorylation after TNFα” value in assay [1] is given as “no effect”. Moreover, the “induced NF-κB DNA binding activity upon TNFα stimulation” value in assay [2] is “did not interfere with induced NF-κB DNA binding activity”. Also, in assay [3] (45 and 60 min following irradiation), the TAK1 phosphorylation entry is on record as “strongly inhibited”. Further, in assay [3] (45 min and 60 min after γ-IR), the IκBα phosphorylation entry is reported as “complete inhibition” and the “p65 S536 phosphorylation” value is “inhibited”. Further, the IKK phosphorylation entry in assay [3] (90 min after irradiation) is reported as “abolished”. Moreover, the “ATM localisation after irradiation (IF)” value in assay [4] is “predominantly localized within the nucleus”. The “phosphorylation of the ATM substrate histone H2AX” value in assay [5] is on record as “did not lead to impaired phosphorylation”. Besides, the “co-immunoprecipitation of PARP1 with IKKγ” value in assay [6] (HepG2, IKKγ IP) is listed as “not co-immunoprecipitated”. Also, in assay [6] (HepG2 nuclear extracts, PIASy IP), the “γ-irradiation-induced Co-IP of phosphorylated ATM-51981 species with PIASy” value is given as “lost after pre-treatment with MW01”.
